Like-named read-outs stand apart in the source and are kept apart here.

Data on one molecule can be found in patent publication US20240350522A1, “HYGROMYCIN A FOR TREATMENT OF DISEASES AND INFECTIONS” (FLIGHTPATH BIOSCIENCES, INC., priority 2021, published 2024).

Test [1] concerns F. nucleatum polymorphum. In words: Kirby-Bauer diffusion assay. The class given is cell-based. The following applies: Fusobacterium nucleatum, mean (SEM), read-out: size of zone inhibition (mm); for zone of inhibition at 5 µg/disc: Hyg A 5 μg per disc; for zone of inhibition at 10 µg/disc: Hyg A 10 μg per disc; for zone of inhibition at 20 µg/disc: Hyg A 20 μg per disc; for zone of inhibition at 40 µg/disc: Hyg A 40 μg per disc. Here is the method:
(§1) Three representatives of 6 subspecies of Fusobacterium nucleatum (F. nucleatum) for a total of 18 strains were tested in the experiment. The sub species and strains are described in Table 2.
(§2) All strains were verified by 16S V3/V6 sequence analysis prior to use. The methods described herein were performed in an anaerobic chamber at 37° C. All media and plates were degassed prior to use.
(§3) Hygromycin A (Hyg A) discs were prepared by solubilizing Hyg A in distilled water and sterile filtered. Clindamycin was used as a positive control. Defined amounts of hygromycin A (40, 20, 10 or 5 micrograms), clindamycin (2 micrograms) or sterile distilled water were absorbed onto Kirby-Bauer discs in a biosafety cabinet.
(§4) An overnight culture was grown in Wilkins-Chalgren (WC) broth and back-diluted 1:10 in fresh broth. When an OD 600 reading reached 0.5, 300 μL of the log phase culture was plated onto WC agar plates. The plates were sectioned into quadrants and a Kirby-Bauer (KB) disc impregnated with a defined amount of hygromycin A was placed in each quadrant. Plates were prepared thus in triplicate and the four amounts of hygromycin A were 40, 20 10 and 5 micrograms. The same volume of culture was spread on fourth plate sectioned into six sections for three positive and three negative controls. KB discs with water served as negative controls and KB discs impregnated with 2 micrograms of clindamycin served as positive controls. […] Table 3, Table 4, Table 5, Table 6, Table 7, Table 8 show the mean size of zone inhibitions for each of the subspecies tested using increasing concentrations of hygromycin A where the standard error of mean is represented in parenthesis.
(§5) The amount of hygromycin A was plotted against the size of the zone of inhibition for each strain tested.

In test [2] the test system is F. nucleatum periodonticum. In words: Kirby-Bauer diffusion assay. The format is cell-based. The following applies: Fusobacterium nucleatum, mean (SEM), read-out: size of zone inhibition (mm); for zone of inhibition at 5 µg/disc: Hyg A 5 μg per disc; for zone of inhibition at 10 µg/disc: Hyg A 10 μg per disc; for zone of inhibition at 20 µg/disc: Hyg A 20 μg per disc; for zone of inhibition at 40 µg/disc: Hyg A 40 μg per disc. The procedure: as §1, §2, §3, §4, §5

What is called zone of inhibition is the size of the clear area around the sample on an inoculated plate. On to `CC(=O)[C@H]1O[C@@H](Oc2ccc(/C=C(\C)C(=O)N[C@@H]3[C@H](O)[C@@H](O)[C@H]4OCO[C@H]4[C@@H]3O)cc2O)[C@@H](O)[C@@H]1O` [Hyg A, Hygromycin A], for which the zone of inhibition at 5 µg/disc in test [1] (strain 13_3C EAV005) amounted to 16.7 mm; in test [1] (strain 203L28) it was 20.3 mm; in test [1] (strain 203L29) it was 18.3 mm; in test [2] (strain 2_1_31 EAV015), 20.3 mm; in test [2] (strain 3_1_7B), 29.3 mm; in test [2] (strain 209B32), 22 mm. Besides, the zone of inhibition at 10 µg/disc in test [1] (strain 13_3C EAV005) was 20 mm; in test [1] (strain 203L28), 23 mm; in test [1] (strain 203L29), 20.3 mm; in test [2] (strain 2_1_31 EAV015), 23.3 mm; in test [2] (strain 3_1_7B) it was 34.3 mm; in test [2] (strain 209B32) it was 25.7 mm. For the same molecule, the zone of inhibition at 20 µg/disc stood at 25.7 mm in test [1] (strain 13_3C EAV005); 24 mm in test [1] (strain 203L28); 24 mm in test [1] (strain 203L29); 25.3 mm in test [2] (strain 2_1_31 EAV015); 36 mm in test [2] (strain 3_1_7B); 30.7 mm in test [2] (strain 209B32). Moreover, the zone of inhibition at 40 µg/disc in test [1] (strain 13_3C EAV005) came out at 27.3 mm; in test [1] (strain 203L28), 30.3 mm; in test [1] (strain 203L29), 26.7 mm; in test [2] (strain 2_1_31 EAV015), 30 mm; in test [2] (strain 3_1_7B) it was 40 mm; in test [2] (strain 209B32), 35 mm.
